# Values quoted from earlier work as cited in US9687445B2, “Oral film containing opiate enteric-release beads” (LTS Lohmann Therapie-Systeme AG, priority 2012, dated 2017).
smiles,measurement,value
C=CCN1CC[C@]23c4c5ccc(O)c4O[C@H]2C(=O)CC[C@@]3(O)[C@H]1C5 [naloxone],pKa,about 7.94
